Consider 17 compounds from US11389438B2 (CHDI Foundation, Inc., priority 2019, dated 2022).

pIC50, pKd: −log10 of the molar value. Read-outs that look alike come from different tables or passages of the source. Some results are limits rather than exact numbers.

In series [1] the target is pre-formed polyQ46 or Exon1-polyQ46 aggregates (mHTT) (Homo sapiens, UniProt P42858, INS38QQQQQQQQQQQQQQQQQQQQQQQQQ). Put plainly: Q46_RBA radioligand binding assay (displacement of [3H]-radioligand). On the procedure: Binding of W to mHTT. A radioligand binding assay was developed to screen for compounds which can efficiently displace a radioligand detailed elsewhere (see, e.g., U.S. Patent Publication No. from US 2017/0292150) pre-formed polyQ46 or Exon1-polyQ46 aggregates (Q46_RBA).
Aggregation of polyQ peptides is initiated by cleavage of the tag from a GST-polyQ46 or from a MBP-Exon1-polyQ46 fusion protein. The pre-formed aggregates are then incubated with compounds which compete with the [^3H]-radiolabelled ligand for binding to the aggregates. The readout is a scintillation based MicroBeta measurement of radioligand bound to aggregates. The activity was indicated as: +++, <100 nM; ++, 100-500 nM, +, >500 nM.
(Displacement assays read how much labelled ligand stays bound in the presence of the test substance.)

The target in series [2] is HTT-Exon1-Q73-EGFP in HeLa cells (soluble mHTT) (Homo sapiens (Human), UniProt P42858, INS38QQQQQQQQQQQQQQQQQQQQQQQQQQQQQQQQQQQQQQQQQQQQQQQQQQQQ). Put plainly: HTT degradation assay, soluble mHTT MSD assay. The format is cell-based. The note with it: HeLa cells transfected with Exon1-Q73-EGFP, 22 hr, 0.01-10 μM. As for the experimental part: (§1) Compounds described herein were tested for efficacy in HTT-lowering in human HeLa cells transiently overexpressing HTT-Exon1-polyQn proteins. For HTT degradation experiments HeLa cells were transiently transfected with pcDNA3.1(+)-hHTT-E1mixQn-EGFP plasmids for transient expression of HTT-Exon1 proteins of different polyQ length (HTT-exon1-Q23/73/145-EGFP). Two hours after transfection the cells were treated with test compounds at 7 concentrations from 0.01 μM to 10 μM (final assay concentration)+DMSO control. After a 22 hr incubation with test compounds the cells were washed with 1×PBS and lysed in MSD lysis buffer (150 mM NaCl; 20 mM Tris ph 7.5; 1 mM EDTA, 1 mM EGTA; 1% Triton X-100, 1× Phosphatase Inh. Cocktail 2, 1× Phosphatase Inh. Cocktail 3, 1× Protease Inh. Cocktail, 10 mM NaF, 1 mM PMSF) for 30 min on ice. […]
HTT-Exon1-Q73-EGFP in HeLa cells (soluble mHTT), sequence (P42858 other isoform, or with tags, fused parts or gaps limits assumed, stated change not applied): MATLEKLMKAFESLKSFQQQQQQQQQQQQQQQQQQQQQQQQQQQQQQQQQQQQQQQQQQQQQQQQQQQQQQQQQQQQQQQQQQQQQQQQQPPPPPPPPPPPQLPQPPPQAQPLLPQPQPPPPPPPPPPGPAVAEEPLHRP
(§2) After an additional washing step, 10 μL per sample were transferred to each well of the antibody-coated MSD plate and incubated with shaking for 1 h at RT. […] After washing three times with washing buffer, 35 μL of read buffer T with surfactant (Meso Scale Discovery) were added to each well. […] The obtained readout is the MSD signal intensity for each well. […]

Series [3] has as its target HTT-Exon1-Q73-EGFP in HeLa cells (aggregated HTT) (Homo sapiens (Human), UniProt P42858, INS38QQQQQQQQQQQQQQQQQQQQQQQQQQQQQQQQQQQQQQQQQQQQQQQQQQQQ). Put plainly: HTT degradation assay, aggregated HTT MSD assay. As to conditions: HeLa cells transfected with Exon1-Q73-EGFP, 22 hr, 0.01-10 μM. The format is cell-based. As for the experimental part: as §1, §2
Series [4] deals with VHL complex (VHL, Elongin B, Elongin C, Cul2, Rbx1) (Homo sapiens (Human), UniProt P40337). Put plainly: VHL SPR assay. Format: binding. As to conditions: immobilized VHL complex; read-out: VHL SPR Kd. An excerpt: (§3) Surface Plasmon Resonance (SPR) assays have been developed to test the affinity (KD) of VHL or CRBN-based compounds to respective recombinant ligase complex/domain.
VHL complex (VHL, Elongin B, Elongin C, Cul2, Rbx1), sequence (P40337 whole entry, looked up): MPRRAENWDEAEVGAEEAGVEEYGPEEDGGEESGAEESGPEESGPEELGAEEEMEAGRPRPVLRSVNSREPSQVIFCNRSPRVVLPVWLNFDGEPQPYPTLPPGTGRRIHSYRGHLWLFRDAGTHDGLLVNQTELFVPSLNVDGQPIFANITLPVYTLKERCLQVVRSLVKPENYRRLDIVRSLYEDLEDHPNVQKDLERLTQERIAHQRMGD
VHL complex (VHL, Elongin B, Elongin C, Cul2, Rbx1), sequence (Q15370 whole entry partner, looked up): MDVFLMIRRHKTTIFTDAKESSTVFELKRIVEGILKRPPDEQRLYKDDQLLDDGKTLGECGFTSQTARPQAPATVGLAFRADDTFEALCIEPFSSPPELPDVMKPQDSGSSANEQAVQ
VHL complex (VHL, Elongin B, Elongin C, Cul2, Rbx1), sequence (Q15369 whole entry partner, looked up): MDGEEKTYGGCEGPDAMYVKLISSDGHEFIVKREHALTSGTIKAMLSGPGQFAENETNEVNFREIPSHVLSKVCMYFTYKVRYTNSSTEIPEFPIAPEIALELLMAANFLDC
VHL complex (VHL, Elongin B, Elongin C, Cul2, Rbx1), sequence (Q13617 whole entry partner, looked up): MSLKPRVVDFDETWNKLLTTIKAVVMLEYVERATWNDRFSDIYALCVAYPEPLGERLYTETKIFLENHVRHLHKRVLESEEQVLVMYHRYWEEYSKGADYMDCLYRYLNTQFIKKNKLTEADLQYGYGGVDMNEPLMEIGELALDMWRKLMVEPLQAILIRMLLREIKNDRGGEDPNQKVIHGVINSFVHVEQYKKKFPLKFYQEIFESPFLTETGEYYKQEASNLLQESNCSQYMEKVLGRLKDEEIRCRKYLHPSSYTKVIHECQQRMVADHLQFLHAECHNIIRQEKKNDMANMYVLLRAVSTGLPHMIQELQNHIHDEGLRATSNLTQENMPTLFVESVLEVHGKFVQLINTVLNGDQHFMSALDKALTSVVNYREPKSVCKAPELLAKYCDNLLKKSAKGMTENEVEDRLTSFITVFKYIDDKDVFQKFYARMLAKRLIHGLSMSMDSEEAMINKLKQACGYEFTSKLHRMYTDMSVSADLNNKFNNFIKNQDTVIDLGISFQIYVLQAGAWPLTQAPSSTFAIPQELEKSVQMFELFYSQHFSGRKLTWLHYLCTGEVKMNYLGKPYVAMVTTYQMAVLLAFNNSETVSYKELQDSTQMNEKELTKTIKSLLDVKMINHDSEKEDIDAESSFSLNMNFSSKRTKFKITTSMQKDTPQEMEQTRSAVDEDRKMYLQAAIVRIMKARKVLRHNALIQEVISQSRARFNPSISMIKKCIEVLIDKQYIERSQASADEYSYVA
VHL complex (VHL, Elongin B, Elongin C, Cul2, Rbx1), sequence (P62877 whole entry partner, looked up): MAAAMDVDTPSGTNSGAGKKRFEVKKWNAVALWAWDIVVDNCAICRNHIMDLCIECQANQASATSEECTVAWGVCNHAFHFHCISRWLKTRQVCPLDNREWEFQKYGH
(§4) The assays are based on surface plasmon resonance (SPR), which enables to measure the changes of the local refractive index due to changes of molecular mass on a gold chip surface in the case of a binding event and in a flowing system. To detect binding between both partners, the respective E3 ligase is immobilized to the chip surface, while the test compounds are flown over the chip surface at a steady velocity. The detected changes in the RU response are indicative of the binding event and are concentration dependent.
(§5) These tags provide the anchor for the capturing process to either an NTA or Streptavidin coated chip surface (immobilization level of 3,000-5,000 RU). Because of the rather complex structure of the VHL complex, it was additionally coupled to the chip surface by amino coupling to prevent any protein loss by disruption of the complex in the flowing system.
(§6) To detect binding of compounds and extract dissociation constants KD for the tested compounds to the immobilized E3 ligase, concentration response curves of the compounds were recorded. Compounds were usually tested in 10-pt dilutions up to 20 μM final concentration in assay buffer and were flown over the chip at 30 μL/min. The contact time for each cycle includes 90 s for association and 200 s for dissociation of compounds.
(§7) In the following tables, the Kd values are indicated as: +++, <100 nM; ++, 100-500 nM, +, >500 nM.
A general note: In SPR one partner is held on a chip, and binding of the other changes the refractive index at the surface.

Series [5] addresses mouse CRBN thalidomide binding domain (mCRBN-TBD) (Mus musculus (Mouse), UniProt Q8C7D2). Put plainly: CRBN SPR assay. As to conditions: immobilized mCRBN-TBD.
Text: as §3, §4, §5, §6, §7

Setting [6] is: class symbols, read-out: Q46_RBA IC50.

mouse CRBN thalidomide binding domain (mCRBN-TBD), sequence (Q8C7D2 321-429): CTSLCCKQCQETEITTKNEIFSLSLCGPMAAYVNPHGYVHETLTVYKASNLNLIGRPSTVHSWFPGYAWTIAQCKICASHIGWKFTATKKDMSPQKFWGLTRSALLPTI
HTT-Exon1-Q73-EGFP in HeLa cells (aggregated HTT), sequence (P42858 other isoform, or with tags, fused parts or gaps limits assumed, stated change not applied): as the sequence (P42858 other isoform, or with tags, fused parts or gaps limits assumed, stated change not applied) above

In general, pIC50 refers to the negative decadic logarithm of the IC50, by convention in mol/L. Broadly, the pKd is −log10 of the Kd, conventionally taken in molar units. With `CNc1c(-c2cn3c(n2)sc2cc(OCCOCC(=O)N[C@H](C(=O)N4C[C@H](O)C[C@H]4C(=O)NCc4ccc(-c5scnc5C)cc4)C(C)(C)C)ccc23)nc2cc(C#N)ccn12` [Compound 1], in series [1], the pIC50 is more than 7.00. In addition, in series [2], the “Reduction of soluble mHTT Exon1-Q73 levels” value is “confirmed”. For the same compound, in series [3], the “Reduction of aggregated mHTT Exon1-Q73 levels” value is reported as “confirmed”. Besides, in series [4], the negative-log Kd (pKd) is 6.30 to 7.00.

Regarding `CNc1c(-c2cn3c(n2)sc2cc(OCCOCC(=O)N[C@@H](C(=O)N4C[C@@H](O)C[C@@H]4C(=O)NCc4ccc(-c5scnc5C)cc4)C(C)(C)C)ccc23)nc2cc(C#N)ccn12` [Compound 10], the pIC50 in series [1] is more than 7.00. Besides, the “Reduction of soluble mHTT Exon1-Q73 levels” value in series [2] is “less active”.

As to `CN1C(=O)CCC(N2C(=O)c3cccc(NCCOCCOCCOc4ccc(COc5ccc6oc(-c7ccc(=O)n(C)n7)nc6c5)nc4)c3C2=O)C1=O` (stereo not drawn) [Compound 30], the negative-log IC50 (pIC50) in series [1] was more than 7.00. For the same compound, in series [5], the negative logarithm of the Kd (pKd) is less than 6.30.

Compound `Cn1nc(-c2nc3cc(OCc4ccc(OCCOCCOCCNc5cccc6c5C(=O)N(C5CCC(=O)NC5=O)C6=O)cn4)ccc3o2)ccc1=O` (stereo not drawn) [Compound 31, 2-(2,6-Dioxopiperidin-3-yl)-4-({2-[2-(2-{[6-({[2-(1-methyl-6-oxo-1,6-dihydropyridazin-3-yl)-1,3-benzoxazol-5-yl]oxy}methyl)pyridin-3-yl]oxy}ethoxy)ethoxy]ethyl}amino)-2,3-dihydro-1H-isoindole-1,3-dione] showed a negative logarithm of the IC50 (pIC50) in series [1] of more than 7.00. In series [5], the pKd was 6.30 to 7.00.

In turn, `Cn1nc(-c2nc3cc(NC(=O)c4ccc(OCCOCCOCCOCCOCCOCCNc5cccc6c5C(=O)N(C5CCC(=O)NC5=O)C6=O)cn4)ccc3o2)ccc1=O` (stereo not drawn) [Compound 32] showed a pIC50 in series [1] of more than 7.00. For the same compound, in series [5], the pKd is 6.30 to 7.00.

In turn, `Cn1nc(-c2nc3cc(NC(=O)c4ccc(OCCOCCOCCNc5cccc6c5C(=O)N(C5CCC(=O)NC5=O)C6=O)cn4)ccc3o2)ccc1=O` (stereo not drawn) [Compound 33, 5-{2-[2-(2-{[2-(2,6-Dioxopiperidin-3-yl)-1,3-dioxo-2,3-dihydro-1H-isoindol-4-yl]amino}ethoxy)ethoxy]ethoxy}-N-[2-(1-methyl-6-oxo-1,6-dihydropyridazin-3-yl)-1,3-benzoxazol-5-yl]pyridine-2-carboxamide] gave a pIC50 in series [1] of more than 7.00. Also, the pKd in series [5] was 6.30 to 7.00.

Consider `Cn1nc(-c2nc3cc(NC(=O)c4ccc(OCCOCCOCCOCCOCCOCCOCCOCCOCCOCCOCCOCCNc5cccc6c5C(=O)N(C5CCC(=O)NC5=O)C6=O)cn4)ccc3o2)ccc1=O` (stereo not drawn) [Compound 34], for which the negative-log IC50 (pIC50) in series [1] (setting [6]) was more than 7.00. Moreover, the pKd in series [5] was less than 6.30.

With `Cn1nc(-c2nc3cc(NC(=O)c4ccc(OCCOCCOCCOCCNc5cccc6c5C(=O)N(C5CCC(=O)NC5=O)C6=O)cn4)ccc3o2)ccc1=O` (stereo not drawn) [Compound 36], the negative-log IC50 (pIC50) in series [1] was more than 7.00. Moreover, the pKd in series [5] was 6.30 to 7.00.

As to `Cn1nc(-c2nc3cc(NC(=O)c4ccc(OCCOCCOCCOCCOCCOCCOCCOCCOCCOCCOCCOCCOCCOCCOCCOCCNc5cccc6c5C(=O)N(C5CCC(=O)NC5=O)C6=O)cn4)ccc3o2)ccc1=O` (stereo not drawn) [Compound 37], in series [1] (setting [6]), the pIC50 is more than 7.00. The compound further had a negative-log Kd (pKd) in series [5] of 6.30 to 7.00.

Compound `Cn1nc(-c2nc3cc(NC(=O)c4ccc(OCCOCCOCCOCCOCCOCCOCCOCCOCCNc5cccc6c5C(=O)N(C5CCC(=O)NC5=O)C6=O)cn4)ccc3o2)ccc1=O` (stereo not drawn) [Compound 38] had a negative-log IC50 (pIC50) in series [1] of more than 7.00. This compound showed a pKd in series [5] of 6.30 to 7.00.

The compound `CN1C(=O)CCC(N2C(=O)c3cccc(NCCOCCOCCOCCOCCOCCOc4ccc(C(=O)Nc5ccc6oc(-c7ccc(=O)n(C)n7)nc6c5)nc4)c3C2=O)C1=O` (stereo not drawn) [Compound 39] gave a pIC50 in series [1] of more than 7.00. In series [5], this compound showed a negative-log Kd (pKd) of less than 6.30.

For the compound `CN1C(=O)CCC(N2C(=O)c3cccc(NCCOCCOCCOCCOCCOCCOCCOCCOCCOCCOCCOCCOc4ccc(C(=O)Nc5ccc6oc(-c7ccc(=O)n(C)n7)nc6c5)nc4)c3C2=O)C1=O` (stereo not drawn) [Compound 40], the pIC50 in series [1] (setting [6]) was more than 7.00. This compound had a negative-log Kd (pKd) in series [5] of less than 6.30.

Compound `COc1ccc(COc2ccc3oc(N4CCN(CCOCCOCCOCC(=O)N[C@H](C(=O)N5C[C@H](O)C[C@H]5C(=O)NCc5ccc(-c6scnc6C)cc5)C(C)(C)C)CC4)nc3c2)nc1` [Compound 55, (2S,4R)-1-((S)-2-(tert-butyl)-14-(4-(5-((5-methoxypyridin-2-yl)meth-oxy)benzo[d]oxazol-2-yl)piperazin-1-yl)-4-oxo-6,9,12-trioxa-3-azatetradecanoyl)-4-hydroxy-N-(4-(4-methylthiazol-5-yl)benzyl)pyrrolidine-2-carboxamide] had a negative logarithm of the IC50 (pIC50) in series [1] of 6.30 to 7.00. In addition, the pKd in series [4] was 6.30 to 7.00.

As to `COc1ccc(COc2ccc3oc(N4CCN(CCOCCOCCOCCOCC(=O)N[C@H](C(=O)N5C[C@H](O)C[C@H]5C(=O)NCc5ccc(-c6scnc6C)cc5)C(C)(C)C)CC4)nc3c2)nc1` [Compound 56], the negative-log IC50 (pIC50) in series [1] is less than 6.30. For the same compound, in series [4], the pKd is 6.30 to 7.00.

`Cc1ncsc1-c1ccc(CNC(=O)[C@@H]2C[C@@H](O)CN2C(=O)[C@@H](NC(=O)COCCOCCOCCOCCOc2ccc(COc3ccc4oc(N5CCn6ccnc6C5)nc4c3)nc2)C(C)(C)C)cc1` [Compound 57]: the negative-log IC50 (pIC50) in series [1] is more than 7.00. For the same compound, the pKd in series [4] was 6.30 to 7.00.

In the case of `Cc1ncsc1-c1ccc(CNC(=O)[C@@H]2C[C@@H](O)CN2C(=O)[C@@H](NC(=O)COCCOCCOCCOc2ccc(COc3ccc4oc(N5CCn6ccnc6C5)nc4c3)nc2)C(C)(C)C)cc1` [Compound 58, (2S,4R)-1-((S)-2-(tert-butyl)-14-((6-(((2-(5,6-dihydroimidazo[1,2-a]pyrazin-7(8H)-yl)benzo[d]oxazol-5-yl)oxy)methyl)pyridin-3-yl)oxy)-4-oxo-6,9,12-trioxa-3-azatetra-decan-1-oyl)-4-hydroxy-N-(4-(4-methylthiazol-5-yl)benzyl)-pyrrolidine-2-carboxamide], in series [1], the negative-log IC50 (pIC50) is 6.30 to 7.00. In addition, the negative logarithm of the Kd (pKd) in series [4] was less than 6.30.

In series [1], `CN1C(=O)CCC(N2C(=O)c3cccc(NCCOCCOCCOc4ccc(C(=O)Nc5ccc6oc(-c7ccc(=O)n(C)n7)nc6c5)nc4)c3C2=O)C1=O` (stereo not drawn) [Compound 70] showed a negative-log IC50 (pIC50) of more than 7.00. In addition, in series [5], the pKd was less than 6.30.
